# Laboratory results as given in patent US4235776A, “Tetrahydro-2H-benzo[c]pyrroles” (Eli Lilly and Company, priority 1979, dated 1980).
# Where a name gives a salt, the structure may show the parent alone.
# Key:
# prolactin = test: inhibition of prolactin secretion in reserpine-treated male rats (serum prolactin); assay type: in vivo, Sprague-Dawley rat; details: intraperitoneal, one hour after treatment, reserpine-pretreated rats
# Protocol: The compounds of this invention are also useful as prolactin inhibitors and as such can be employed in the treatment of inappropriate lactation, such as postpartum lactation, and of galactorrhea.
# Adult male rats of the Sprague-Dawley strain weighing about 200 g. were housed in an air-conditioned room with controlled lighting (lights on 6 a.m.-8 p.m.) and fed lab chow and water ad libitum. Each rat received an intraperitoneal injection of 2.0 mg. of reserpine in aqueous suspension 18 hours before administration of the isoindole. The purpose of the reserpine was to keep prolactin levels uniformly elevated. The compounds under test were dissolved in water and were injected intraperitoneally at doses ranging from 5 mg/kg down to 50 mcg/kg. Each compound was administered at each dose level to a group of 10 rats, and a control group of 10 intact males received an equivalent amount of solvent. One hour after treatment all rats were killed by decapitation, and 150 μl aliquots of serum were assayed for prolactin.
# The difference between the prolactin level of the treated rats and prolactin level of the control rats divided by the prolactin level of the control rats gives the percent inhibition of prolactin secretion attributable to the compounds of this invention. In the table, column 1 gives the name of the compound; and columns 2-4 the percent prolactin inhibition at the given dose level.
# [1] = test system: 6-hydroxydopamine-lesioned rats; test: turning behavior in 6-hydroxydopamine-lesioned rats (dopamine agonist activity); assay type: in vivo, rat; details: 1 mg/kg intraperitoneal
# Excerpt: In this test, nigro-neostriatal-lesioned rats are employed prepared by the procedure of Ungerstedt and Arbuthnott, Brain Res, 24, 485 (1970). A compound having dopamine agonist activity upon injection causes the rats to turn in circles contralateral to the side of the lesion. After a latency period, which varies from compound to compound, the number of turns is counted over a 15-minute period.
# mouse = test: intraperitoneal toxicity in the mouse; assay type: in vivo
# Protocol: In using the compounds of this invention to inhibit prolactin secretion or to treat Prakinson's syndrome or for other pharmacologic action, a pharmaceutically active compound according to Formula I above, or a salt thereof with a pharmaceutically-acceptable acid, is administered to a subject suffering from Parkinsonism or in need of having their prolactin level reduced in an amount effective to alleviate some of the symptoms of Parkinsonism or to reduce an elevated prolactin level. Oral administration is preferred. If parenteral administration is used, the injection is preferably by the subcutaneous route using an appropriate pharmaceutical formulation. […] In particular, with intravenous or intramuscular administration, a water soluble pharmaceutically-acceptable salt is employed. For oral administration, a pharmaceutically active compound according to Formula I either as the free base or in the form of a salt thereof can also be mixed with standard pharmaceutical excipients and loaded into empty telescoping gelatin capsules or pressed into tablets. The oral dosage range is from about 0.01 to 10 mg/kg of mammalian weight and the parenteral dose range from about 0.0025 to 2.5 mg/kg of mammalian weight.
SMILES,Percent Inhibition of Prolactin at a Given Dose Level (prolactin; 5 mg/kg) [%],Percent Inhibition of Prolactin at a Given Dose Level (prolactin; 500 mcg/kg) [%],rats exhibiting turning behavior [1],average turns per rat ([1]; turns counted over a 15-minute period after latency) [turns per rat],Percent Inhibition of Prolactin at a Given Dose Level (prolactin; 50 mcg/kg) [%],"lethality (mouse; dosages of 100-300 mg/kg, intraperitoneal)",deaths (mouse; intraperitoneal dosages of 10-30 mg/kg)
"CCN(CC)C1CCc2c[nH]cc2C1 (racemic) [dl-5-diethylamino-4,5,6,7-tetrahydro-2H-benzo[c]pyrrole maleate]",23,25,,,,,
"CCCN(CCC)C1CCc2c[nH]cc2C1 (racemic) [dl-5-di-n-propylamino-4,5,6,7-tetrahydro-2H-benzo[c]pyrrole maleate]",91,47,1/3,34,20,fatal,no deaths
